Data published in patent US4201866A, “O-Hemi-succinate of propranolol” (American Home Products Corporation, priority 1977, dated 1980).
Counter-ions that a name gives are not always drawn.

Experiment: Oral administration of the compound of Example 6; plasma levels (Example 7)
Format: in vivo
Conditions: beagle dogs
Description: In this experiment, four beagle dogs were given an 80 mg. oral dose of propranolol HCl or an equivalent dose of the o-hemi-succinate. The animals were divided into two groups of two, each group receiving the drugs according to a crossover design. The crossover experiment was repeated twice. A period of at least one week elapsed between each dosing day. Blood samples were obtained at regular intervals after dosing a plasma was analyzed for free propranolol concentrations.
The compound of Example 6 was orally administered to beagle dogs in a similar manner as Example 2. Plasma levels of the compound of Example 6 were twice as high as those obtained after an equivalent dose of propranol hydrochloride.

- Plasma levels compared with equivalent dose of propranolol hydrochloride: twice as high
Compound: CCOC(=O)CCC(=O)OC(CNC(C)C)COc1cccc2ccccc12 (stereo not shown) [Example 6, Butanedioic acid-1-[(2-(1-methylethyl)amino] -1-[(1-naphtalenyloxy)methyl]diethylether hydrochloride]
